The EC50 is the midpoint of the concentration-response curve.

The text below walks through data of ChEMBL document CHEMBL4834412, “2,4,5-Trisubstituted Pyrimidines as Potent HIV-1 NNRTIs: Rational Design, Synthesis, Activity Evaluation, and Crystallographic Studies” (J Med Chem, 2021).

One test deals with Human immunodeficiency virus 1. The test is described as follows: Antiviral activity against NNRTI-resistant HIV-1 RES056 harboring RT K103N/Y181C mutant infected in human MT4 cells assessed as protection against virus-induced cytopathogenicity after 5 days by MTT assay. Type of test: functional, organism-based. As to conditions: Human immunodeficiency virus 1, RES056, MT4, 120 h.
For the compound `Cc1cc(C#N)cc(C)c1Oc1nc(NC2CCN(Cc3ccc(S(N)(=O)=O)cc3)CC2)ncc1-c1ccccc1`, the EC50 is 427 nM.

In the case of `Cc1cc(C#N)cc(C)c1Oc1nc(NC2CCN(Cc3ccc(S(N)(=O)=O)cc3)CC2)ncc1-c1ccoc1`, the EC50 turned out to be 161 nM.

For `Cc1cc(/C=C/C#N)cc(C)c1Oc1nc(NC2CCN(Cc3ccc(S(C)(=O)=O)cc3)CC2)ncc1-c1cccnc1`, the EC50 came to 22.4 nM.

As for `Cc1cc(C#N)cc(C)c1Oc1nc(NC2CCN(Cc3ccc(C(N)=O)cc3)CC2)ncc1-c1ccco1`, the EC50 came out at 254 nM.

For `Cc1cc(/C=C/C#N)cc(C)c1Oc1nc(NC2CCN(Cc3ccc(S(N)(=O)=O)cc3)CC2)ncc1-c1cccnc1`, the EC50 came to 25.8 nM.

For a further test, the system named is Human immunodeficiency virus 1. Nature of the test: Antiviral activity against HIV-1 harboring RT F227L/V106A mutant infected in human MT4 cells assessed as protection against virus-induced cytopathogenicity after 5 days by MTT assay. Type of test: functional, organism-based. As to conditions: Human immunodeficiency virus 1, MT4, 120 h. On the technique in general: Damage to the host cells serves as the signal in cytopathic effect assays.
With `Cc1cc(C#N)cc(C)c1Oc1nc(NC2CCN(Cc3ccc(S(N)(=O)=O)cc3)CC2)ncc1-c1ccccc1`, the EC50 is 219 nM.

Turning to `Cc1cc(C#N)cc(C)c1Oc1nc(NC2CCN(Cc3ccc(S(N)(=O)=O)cc3)CC2)ncc1-c1ccoc1`, the EC50 was 63.2 nM.

As to `Cc1cc(/C=C/C#N)cc(C)c1Oc1nc(NC2CCN(Cc3ccc(S(C)(=O)=O)cc3)CC2)ncc1-c1cccnc1`, the EC50 amounted to 13.2 nM.

As to `Cc1cc(C#N)cc(C)c1Oc1nc(NC2CCN(Cc3ccc(C(N)=O)cc3)CC2)ncc1-c1ccco1`, the EC50 worked out at 161 nM.

In the case of `Cc1cc(/C=C/C#N)cc(C)c1Oc1nc(NC2CCN(Cc3ccc(S(N)(=O)=O)cc3)CC2)ncc1-c1cccnc1`, the EC50 was determined as 12.2 nM.

The test system of the next test is Human immunodeficiency virus 1. The test is described as follows: Antiviral activity against HIV-1 harboring RT E138K mutant infected in human MT4 cells assessed as protection against virus-induced cytopathogenicity after 5 days by MTT assay. As to conditions: Human immunodeficiency virus 1, MT4, 120 h. Type of test: functional, organism-based.
As for `Cc1cc(C#N)cc(C)c1Oc1nc(NC2CCN(Cc3ccc(S(N)(=O)=O)cc3)CC2)ncc1-c1ccccc1`, the EC50 came to 24.5 nM.

On to `Cc1cc(C#N)cc(C)c1Oc1nc(NC2CCN(Cc3ccc(S(N)(=O)=O)cc3)CC2)ncc1-c1ccoc1`, for which the EC50 was 13 nM.

Consider `Cc1cc(/C=C/C#N)cc(C)c1Oc1nc(NC2CCN(Cc3ccc(S(C)(=O)=O)cc3)CC2)ncc1-c1cccnc1`, for which the EC50 came to 12.2 nM.

With `Cc1cc(C#N)cc(C)c1Oc1nc(NC2CCN(Cc3ccc(C(N)=O)cc3)CC2)ncc1-c1ccco1`, the EC50 is 11.9 nM.

As to `Cc1cc(/C=C/C#N)cc(C)c1Oc1nc(NC2CCN(Cc3ccc(S(N)(=O)=O)cc3)CC2)ncc1-c1cccnc1`, the EC50 was 11.9 nM.

The test system of the next test is Human immunodeficiency virus 1. The test is described as follows: Antiviral activity against HIV-1 harboring RT L100I mutant infected in human MT4 cells assessed as protection against virus-induced cytopathogenicity after 5 days by MTT assay. The note with it: Human immunodeficiency virus 1, MT4, 120 h. Type of test: functional, organism-based.
With `Cc1cc(C#N)cc(C)c1Oc1nc(NC2CCN(Cc3ccc(S(N)(=O)=O)cc3)CC2)ncc1-c1ccccc1`, the 50% effective concentration (EC50) is 53.2 nM.

`Cc1cc(C#N)cc(C)c1Oc1nc(NC2CCN(Cc3ccc(S(N)(=O)=O)cc3)CC2)ncc1-c1ccoc1`: the EC50 was determined as 13.6 nM.

In the case of `Cc1cc(/C=C/C#N)cc(C)c1Oc1nc(NC2CCN(Cc3ccc(S(C)(=O)=O)cc3)CC2)ncc1-c1cccnc1`, the EC50 was 10.7 nM.

For the compound `Cc1cc(C#N)cc(C)c1Oc1nc(NC2CCN(Cc3ccc(C(N)=O)cc3)CC2)ncc1-c1ccco1`, the EC50 came to 38.2 nM.

In the case of `Cc1cc(/C=C/C#N)cc(C)c1Oc1nc(NC2CCN(Cc3ccc(S(N)(=O)=O)cc3)CC2)ncc1-c1cccnc1`, the EC50 worked out at 7.85 nM.

Another test concerns Human immunodeficiency virus 1. Nature of the test: Antiviral activity against HIV-1 strain IIIB infected in human MT4 cells assessed as protection against virus-induced cytopathicity after 5 days by MTT assay. The class given is functional, organism-based. The note with it: Human immunodeficiency virus 1, IIIB, MT4, 120 h.
Take `Cc1cc(C#N)cc(C)c1Oc1nc(NC2CCN(Cc3ccc(S(N)(=O)=O)cc3)CC2)ncc1-c1ccccc1`: the EC50 was found to be 5.14 nM.

As to `Cc1cc(C#N)cc(C)c1Oc1nc(NC2CCN(Cc3ccc(S(N)(=O)=O)cc3)CC2)ncc1-c1ccoc1`, the EC50 was found to be 2.51 nM.

On to `Cc1cc(/C=C/C#N)cc(C)c1Oc1nc(NC2CCN(Cc3ccc(S(C)(=O)=O)cc3)CC2)ncc1-c1cccnc1`, for which the 50% effective concentration (EC50) was found to be 4.57 nM.

Take `Cc1cc(C#N)cc(C)c1Oc1nc(NC2CCN(Cc3ccc(C(N)=O)cc3)CC2)ncc1-c1ccco1`: the EC50 is 5.78 nM.

As for `Cc1cc(/C=C/C#N)cc(C)c1Oc1nc(NC2CCN(Cc3ccc(S(N)(=O)=O)cc3)CC2)ncc1-c1cccnc1`, the EC50 amounted to 5.04 nM.

In a further test the test system is Human immunodeficiency virus 1. Nature of the test: Antiviral activity against HIV-1 harboring RT Y181C mutant infected in human MT4 cells assessed as protection against virus-induced cytopathogenicity after 5 days by MTT assay. The class given is functional, organism-based. The note with it: Human immunodeficiency virus 1, MT4, 120 h.
Turning to `Cc1cc(C#N)cc(C)c1Oc1nc(NC2CCN(Cc3ccc(S(N)(=O)=O)cc3)CC2)ncc1-c1ccccc1`, the EC50 was 26.2 nM.

For the compound `Cc1cc(C#N)cc(C)c1Oc1nc(NC2CCN(Cc3ccc(S(N)(=O)=O)cc3)CC2)ncc1-c1ccoc1`, the EC50 turned out to be 9.35 nM.

In the case of `Cc1cc(/C=C/C#N)cc(C)c1Oc1nc(NC2CCN(Cc3ccc(S(C)(=O)=O)cc3)CC2)ncc1-c1cccnc1`, the EC50 was found to be 10.3 nM.

As for `Cc1cc(C#N)cc(C)c1Oc1nc(NC2CCN(Cc3ccc(C(N)=O)cc3)CC2)ncc1-c1ccco1`, the half-maximal effective concentration (EC50) was 14.9 nM.

For `Cc1cc(/C=C/C#N)cc(C)c1Oc1nc(NC2CCN(Cc3ccc(S(N)(=O)=O)cc3)CC2)ncc1-c1cccnc1`, the EC50 was found to be 9.95 nM.

The test system of another test is Human immunodeficiency virus 1. Nature of the test: Antiviral activity against HIV-1 harboring RT K103N mutant infected in human MT4 cells assessed as protection against virus-induced cytopathogenicity after 5 days by MTT assay. Type of test: functional, organism-based. As to conditions: Human immunodeficiency virus 1, MT4, 120 h.
For `Cc1cc(C#N)cc(C)c1Oc1nc(NC2CCN(Cc3ccc(S(N)(=O)=O)cc3)CC2)ncc1-c1ccccc1`, the concentration giving a half-maximal response (EC50) was found to be 7.74 nM.

Take `Cc1cc(C#N)cc(C)c1Oc1nc(NC2CCN(Cc3ccc(S(N)(=O)=O)cc3)CC2)ncc1-c1ccoc1`: the EC50 stood at 3 nM.

Take `Cc1cc(/C=C/C#N)cc(C)c1Oc1nc(NC2CCN(Cc3ccc(S(C)(=O)=O)cc3)CC2)ncc1-c1cccnc1`: the EC50 turned out to be 5.42 nM.

In the case of `Cc1cc(C#N)cc(C)c1Oc1nc(NC2CCN(Cc3ccc(C(N)=O)cc3)CC2)ncc1-c1ccco1`, the EC50 was determined as 3.73 nM.

For the compound `Cc1cc(/C=C/C#N)cc(C)c1Oc1nc(NC2CCN(Cc3ccc(S(N)(=O)=O)cc3)CC2)ncc1-c1cccnc1`, the EC50 turned out to be 6.25 nM.

The test system of the next test is Human immunodeficiency virus 1. The test is described as follows: Antiviral activity against HIV-1 harboring RT Y188L mutant infected in human MT4 cells assessed as protection against virus-induced cytopathogenicity after 5 days by MTT assay. Type of test: functional, organism-based. As to conditions: Human immunodeficiency virus 1, MT4, 120 h.
Take `Cc1cc(C#N)cc(C)c1Oc1nc(NC2CCN(Cc3ccc(S(N)(=O)=O)cc3)CC2)ncc1-c1ccccc1`: the EC50 turned out to be 33.2 nM.

Turning to `Cc1cc(C#N)cc(C)c1Oc1nc(NC2CCN(Cc3ccc(S(N)(=O)=O)cc3)CC2)ncc1-c1ccoc1`, the EC50 was 15.3 nM.

In the case of `Cc1cc(/C=C/C#N)cc(C)c1Oc1nc(NC2CCN(Cc3ccc(S(C)(=O)=O)cc3)CC2)ncc1-c1cccnc1`, the concentration giving a half-maximal response (EC50) came out at 22.7 nM.

Turning to `Cc1cc(C#N)cc(C)c1Oc1nc(NC2CCN(Cc3ccc(C(N)=O)cc3)CC2)ncc1-c1ccco1`, the EC50 turned out to be 23.3 nM.

On to `Cc1cc(/C=C/C#N)cc(C)c1Oc1nc(NC2CCN(Cc3ccc(S(N)(=O)=O)cc3)CC2)ncc1-c1cccnc1`, for which the EC50 is 25.1 nM.
